For test [1], the target named is HhaI methyltransferase (M.HhaI) (Haemophilus parahaemolyticus, UniProt P05102, W41I). In words: biochemical.
Test [2] concerns the target T1, HhaI methyltransferase (M.HhaI) (Haemophilus parahaemolyticus, UniProt P05102).
T1 sequence (P05102 1-327): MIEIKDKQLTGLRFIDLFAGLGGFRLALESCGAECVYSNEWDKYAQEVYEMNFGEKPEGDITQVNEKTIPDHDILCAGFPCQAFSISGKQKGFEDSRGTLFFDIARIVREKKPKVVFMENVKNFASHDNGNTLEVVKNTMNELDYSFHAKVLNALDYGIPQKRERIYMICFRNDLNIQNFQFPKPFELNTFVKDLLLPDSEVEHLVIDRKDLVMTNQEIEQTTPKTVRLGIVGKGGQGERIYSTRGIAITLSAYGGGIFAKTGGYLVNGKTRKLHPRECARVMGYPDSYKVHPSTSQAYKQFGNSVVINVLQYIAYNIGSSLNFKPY
In words: biochemical.

Broadly, the Kd is a measure of binding affinity in units of concentration. Lower therefore signals a tighter complex. For the molecule `C[S+](CC[C@H](N)C(=O)O)C[C@H]1O[C@@H](n2cnc3c(N)ncnc32)[C@H](O)[C@@H]1O` (some centres unmarked) [AdoMet], the Kd in test [1] is 14 µM; in test [2], 4.4 µM.

Values taken from PMC546160 (Nucleic Acids Research, 2005).
